Assay results: patent publication US8192962B2, “Processes for detecting toxic substances” (Daikin Industries, Ltd., priority 2001, dated 2012)

Tests used:
[1] = test system: Detoxification protein genes; experiment: DNA chip mRNA expression in yeast, detoxification protein genes (Table 8); type: cell-based, Saccharomyces cerevisiae S288C
Summary of the method: (§1)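 In this screen, yeast in logarithmic growth are challenged for two hours with a toxic substance at a non-lethal inhibitory concentration. Their mRNA, converted to Cy3- or Cy5-labeled cDNA, hybridizes at 65° C. to a chip spanning every yeast gene, and expression is expressed as a ratio to untreated cells.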

DNA repair protein genes = experiment: DNA chip mRNA expression in yeast, DNA repair protein genes (Table 3); type: cell-based, Saccharomyces cerevisiae S288C; settings: incubated two hours, concentrations as in the 1st table
Summary of the method: as §1

`CN(C)C(=S)SSC(=S)N(C)C` [(10), Tetramethylthiuram disulfide] was tested, and the “The level of expressed mRNA in the presence of chemical substance/The level of expressed mRNA in the absence of chemical substance” value ([1]; yeast gene YOR251C) was 0.8, the “The level of expressed mRNA in the presence of chemical substance/The level of expressed mRNA in the absence of chemical substance” value ([1]; yeast gene YOR273C) was 0.5 and the “The level of expressed mRNA in the presence of chemical substance/The level of expressed mRNA in the absence of chemical substance” value ([1]; yeast gene YPL163C) was 0.4. The “The level of expressed mRNA in the presence of chemical substance/The level of expressed mRNA in the absence of chemical substance” value ([1]; yeast gene YPR200C) was 3.8, the “The level of expressed mRNA in the presence of chemical substance/The level of expressed mRNA in the absence of chemical substance” value (DNA repair protein genes; yeast gene YAL015C) was 2.7 and the “The level of expressed mRNA in the presence of chemical substance/The level of expressed mRNA in the absence of chemical substance” value (DNA repair protein genes; yeast gene YAR007C) was 1.7. The “The level of expressed mRNA in the presence of chemical substance/The level of expressed mRNA in the absence of chemical substance” value (DNA repair protein genes; yeast gene YBL019W) was 1.4, the “The level of expressed mRNA in the presence of chemical substance/The level of expressed mRNA in the absence of chemical substance” value (DNA repair protein genes; yeast gene YBR073W) was 1.8 and the “The level of expressed mRNA in the presence of chemical substance/The level of expressed mRNA in the absence of chemical substance” value (DNA repair protein genes; yeast gene YBR272C) was 2.7. For the same compound, the “The level of expressed mRNA in the presence of chemical substance/The level of expressed mRNA in the absence of chemical substance” value (DNA repair protein genes; yeast gene YCR014C) was 1.0, the “The level of expressed mRNA in the presence of chemical substance/The level of expressed mRNA in the absence of chemical substance” value (DNA repair protein genes; yeast gene YDL017W) was 1.8 and the “The level of expressed mRNA in the presence of chemical substance/The level of expressed mRNA in the absence of chemical substance” value (DNA repair protein genes; yeast gene YDL059C) was 7.8. The “The level of expressed mRNA in the presence of chemical substance/The level of expressed mRNA in the absence of chemical substance” value (DNA repair protein genes; yeast gene YDL200C) was 1.8, the “The level of expressed mRNA in the presence of chemical substance/The level of expressed mRNA in the absence of chemical substance” value (DNA repair protein genes; yeast gene YDR054C) was 3.2 and the “The level of expressed mRNA in the presence of chemical substance/The level of expressed mRNA in the absence of chemical substance” value (DNA repair protein genes; yeast gene YDR369C) was 1.8. The “The level of expressed mRNA in the presence of chemical substance/The level of expressed mRNA in the absence of chemical substance” value (DNA repair protein genes; yeast gene YEL019C) was 0.7, the “The level of expressed mRNA in the presence of chemical substance/The level of expressed mRNA in the absence of chemical substance” value (DNA repair protein genes; yeast gene YEL037C) was 1.2 and the “The level of expressed mRNA in the presence of chemical substance/The level of expressed mRNA in the absence of chemical substance” value (DNA repair protein genes; yeast gene YER162C) was 1.6. For the same compound, the “The level of expressed mRNA in the presence of chemical substance/The level of expressed mRNA in the absence of chemical substance” value (DNA repair protein genes; yeast gene YFL014W) was 5.8, the “The level of expressed mRNA in the presence of chemical substance/The level of expressed mRNA in the absence of chemical substance” value (DNA repair protein genes; yeast gene YGL058W) was 1.8 and the “The level of expressed mRNA in the presence of chemical substance/The level of expressed mRNA in the absence of chemical substance” value (DNA repair protein genes; yeast gene YGL091C) was 6.0. The “The level of expressed mRNA in the presence of chemical substance/The level of expressed mRNA in the absence of chemical substance” value (DNA repair protein genes; yeast gene YGL127C) was 1.5, the “The level of expressed mRNA in the presence of chemical substance/The level of expressed mRNA in the absence of chemical substance” value (DNA repair protein genes; yeast gene YGL163C) was 2.3 and the “The level of expressed mRNA in the presence of chemical substance/The level of expressed mRNA in the absence of chemical substance” value (DNA repair protein genes; yeast gene YGL249W) was 2.4. The “The level of expressed mRNA in the presence of chemical substance/The level of expressed mRNA in the absence of chemical substance” value (DNA repair protein genes; yeast gene YGR180C) was 1.5, the “The level of expressed mRNA in the presence of chemical substance/The level of expressed mRNA in the absence of chemical substance” value (DNA repair protein genes; yeast gene YGR231C) was 2.3 and the “The level of expressed mRNA in the presence of chemical substance/The level of expressed mRNA in the absence of chemical substance” value (DNA repair protein genes; yeast gene YGR258C) was 1.5. The “The level of expressed mRNA in the presence of chemical substance/The level of expressed mRNA in the absence of chemical substance” value (DNA repair protein genes; yeast gene YHR164C) was 3.1, the “The level of expressed mRNA in the presence of chemical substance/The level of expressed mRNA in the absence of chemical substance” value (DNA repair protein genes; yeast gene YIL036W) was 2.7 and the “The level of expressed mRNA in the presence of chemical substance/The level of expressed mRNA in the absence of chemical substance” value (DNA repair protein genes; yeast gene YIL072W) was 2.1. For the same compound, the “The level of expressed mRNA in the presence of chemical substance/The level of expressed mRNA in the absence of chemical substance” value (DNA repair protein genes; yeast gene YIL143C) was 3.5, the “The level of expressed mRNA in the presence of chemical substance/The level of expressed mRNA in the absence of chemical substance” value (DNA repair protein genes; yeast gene YIL153W) was 1.1 and the “The level of expressed mRNA in the presence of chemical substance/The level of expressed mRNA in the absence of chemical substance” value (DNA repair protein genes; yeast gene YIR002C) was 1.4. The “The level of expressed mRNA in the presence of chemical substance/The level of expressed mRNA in the absence of chemical substance” value (DNA repair protein genes; yeast gene YJL026W) was 1.1, the “The level of expressed mRNA in the presence of chemical substance/The level of expressed mRNA in the absence of chemical substance” value (DNA repair protein genes; yeast gene YJR046W) was 2.4 and the “The level of expressed mRNA in the presence of chemical substance/The level of expressed mRNA in the absence of chemical substance” value (DNA repair protein genes; yeast gene YJR052W) was 2.3. The “The level of expressed mRNA in the presence of chemical substance/The level of expressed mRNA in the absence of chemical substance” value (DNA repair protein genes; yeast gene YKL145W) was 2.7, the “The level of expressed mRNA in the presence of chemical substance/The level of expressed mRNA in the absence of chemical substance” value (DNA repair protein genes; yeast gene YLR103C) was 0.5 and the “The level of expressed mRNA in the presence of chemical substance/The level of expressed mRNA in the absence of chemical substance” value (DNA repair protein genes; yeast gene YLR233C) was 0.5. The “The level of expressed mRNA in the presence of chemical substance/The level of expressed mRNA in the absence of chemical substance” value (DNA repair protein genes; yeast gene YLR288C) was 1.3, the “The level of expressed mRNA in the presence of chemical substance/The level of expressed mRNA in the absence of chemical substance” value (DNA repair protein genes; yeast gene YML032C) was 1.1 and the “The level of expressed mRNA in the presence of chemical substance/The level of expressed mRNA in the absence of chemical substance” value (DNA repair protein genes; yeast gene YML058W) was 1.2. For the same compound, the “The level of expressed mRNA in the presence of chemical substance/The level of expressed mRNA in the absence of chemical substance” value (DNA repair protein genes; yeast gene YMR035W) was 1.6, the “The level of expressed mRNA in the presence of chemical substance/The level of expressed mRNA in the absence of chemical substance” value (DNA repair protein genes; yeast gene YMR072W) was 1.2 and the “The level of expressed mRNA in the presence of chemical substance/The level of expressed mRNA in the absence of chemical substance” value (DNA repair protein genes; yeast gene YMR096W) was 3.7. The “The level of expressed mRNA in the presence of chemical substance/The level of expressed mRNA in the absence of chemical substance” value (DNA repair protein genes; yeast gene YMR284W) was 1.8, the “The level of expressed mRNA in the presence of chemical substance/The level of expressed mRNA in the absence of chemical substance” value (DNA repair protein genes; yeast gene YNL213C) was 1.5 and the “The level of expressed mRNA in the presence of chemical substance/The level of expressed mRNA in the absence of chemical substance” value (DNA repair protein genes; yeast gene YNL250W) was 2.3. For the same compound, the “The level of expressed mRNA in the presence of chemical substance/The level of expressed mRNA in the absence of chemical substance” value (DNA repair protein genes; yeast gene YNL261W) was 1.5, the “The level of expressed mRNA in the presence of chemical substance/The level of expressed mRNA in the absence of chemical substance” value (DNA repair protein genes; yeast gene YNL312W) was 2.5 and the “The level of expressed mRNA in the presence of chemical substance/The level of expressed mRNA in the absence of chemical substance” value (DNA repair protein genes; yeast gene YOL043C) was 1.8. For the same compound, the “The level of expressed mRNA in the presence of chemical substance/The level of expressed mRNA in the absence of chemical substance” value (DNA repair protein genes; yeast gene YOR005C) was 1.5, the “The level of expressed mRNA in the presence of chemical substance/The level of expressed mRNA in the absence of chemical substance” value (DNA repair protein genes; yeast gene YOR386W) was 3.0 and the “The level of expressed mRNA in the presence of chemical substance/The level of expressed mRNA in the absence of chemical substance” value (DNA repair protein genes; yeast gene YPL022W) was 1.6. The “The level of expressed mRNA in the presence of chemical substance/The level of expressed mRNA in the absence of chemical substance” value (DNA repair protein genes; yeast gene YPL164C) was 2.0, the “The level of expressed mRNA in the presence of chemical substance/The level of expressed mRNA in the absence of chemical substance” value (DNA repair protein genes; yeast gene YPL194W) was 3.1 and the “The level of expressed mRNA in the presence of chemical substance/The level of expressed mRNA in the absence of chemical substance” value (DNA repair protein genes; yeast gene YPR025C) was 1.7.
